Patent publication US20250162973A1, “METHODS OF SYNTHESIS AND USES OF AGRIMOL COMPOUNDS” (Versitech Limited, priority 2022, published 2025)
Read-outs that look alike come from different tables or passages of the source.

Tests used:
[1] = test system: human cancer cell lines (MDA-MB-231, MCF-7, HepG2, HeLa, AGS, HCT116, SW480, SUNE-1, H460, HCC827, H1650, A549); assay: MTT cell viability assay, panel of human cancer cell lines; assay type: cell-based; conditions: Homo sapiens
Procedure: (§1) SUNE1 (nasopharyngeal carcinoma), AGS (gastric adenocarcinoma), HeLa (cervix adenocarcinoma), HepG2 (hepatocellular carcinoma), U-87 MG (human glioblastoma cell), U2OS (osteosarcoma), MCF-7 (breast adenocarcinoma), MDA-MB-231 (breast adenocarcinoma), HCT116 (colorectal carcinoma), SW480 (colorectal adenocarcinoma), NCI-H460 (large cell lung carcinoma), NCI-H1650 (adenocarcinoma lung carcinoma), HCC827 (adenocarcinoma lung carcinoma), A549 (lung carcinoma), and CCD-19Lu (human lung fibroblast normal cell) were all obtained from American Type Culture Collection (ATCC, Manassas, VA, USA). Minimum Essential Media (MEM, Gibco®, ThermoFisher Scientific), Dulbecco's Modified Eagle Medium (DMEM, Gibco®, ThermoFisher Scientific), and RPMI-1640 Medium (Gibco®, ThermoFisher Scientific) supplemented with 10% Fetal Bovine Serum (Gibco®, ThermoFisher Scientific), and 100 U/mL penicillin-streptomycin (Gibco™, ThermoFisher Scientific) were used for cell culture. Cells were placed into an incubator with 5% CO2 that temperature was set at 37° C. For subculturing cells, 0.05% Trypsin-EDTA (Gibco®) was used for detaching and a subcultivation ratio of 1:5 was used.
The cell viability assay was performed by a typical MTT assay. Briefly, 5*10^3 cells were seeded in the 96-well flat bottom plate and allowed to attach overnight. After drug treatment with a serial dilution from 100 μM for 48 h, 10 μL of MTT solution (5 mg/ml prepared in PBS, filtered) was added into each well and incubate for 4 h at 37° C. The formed formazan was then dissolved with SDS solution (10% SDS in 10 mM HCl) and followed the determination of absorbance at 590 nm by a microplate reader. The change in cell viability was then calculated for each drug concentration, then normalized to control. Dose response curves from each assay were fit to a Boltzmann sigmoidal function (GraphPad Prism8, version8.0.0). The cytotoxicity of AGB and its derivatives was determined by the calculation of IC50 value (half maximal inhibitory concentration) from fitted curves, which was the concentration of drug induced 50% cell viability.

[2] = biological target: T1, TALDO1 (Homo sapiens, UniProt P37837); assay: Tryptophan fluorescence quenching assay; conditions: Stern-Volmer analysis; read-out: Kd of AGB binding to TALDO1
T1 construct: endogenous in cells
T1 sequence (P37837 1-337): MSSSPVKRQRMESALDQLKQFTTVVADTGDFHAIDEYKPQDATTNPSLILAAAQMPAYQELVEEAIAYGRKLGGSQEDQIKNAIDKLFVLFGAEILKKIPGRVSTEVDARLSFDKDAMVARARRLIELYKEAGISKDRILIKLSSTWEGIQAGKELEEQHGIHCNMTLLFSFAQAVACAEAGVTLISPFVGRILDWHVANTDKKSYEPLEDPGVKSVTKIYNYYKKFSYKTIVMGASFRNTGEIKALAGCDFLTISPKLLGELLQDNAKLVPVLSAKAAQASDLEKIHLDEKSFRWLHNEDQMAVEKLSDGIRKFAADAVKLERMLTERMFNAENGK
Procedure: (§2) FIG. 5A is a volcano plot (ΔTm, p-value) for TPP data obtained from NCI-H460 cells with 4 μM AGB treatment for 1 h. The criteria were set as ΔTm>2° C. and p<0.05. FIG. 5B is a graph showing results of the tryptophan fluorescence quenching assay for the direct interaction between AGB and three target proteins. Upper, tryptophan fluorescence titration of recombinant proteins with AGB. […] For CS, its fluorescence decrease was saturated when AGB concentrations increased to about 32 μM. Lower, the normalized tryptophan intensities at an emission of 320 nm were plotted as a function of total added concentration of AGB. The dissociation constants (Kd) between AGB and three proteins were then calculated by fitting this plot with Stern-Volmer Equation. […] The fluorescence intensity was presented as percentage relative to control groups. […]
(§3) To further examine whether AGB interacts directly with the above three identified proteins, the intrinsic tryptophan fluorescence properties of these proteins were examined in the presence of AGB at different concentrations. Upon binding with AGB, proteins experience a change of the tryptophan environment, which can be visualized by fluorescence spectroscopy. As shown in FIG. 5B the tryptophan fluorescence of three proteins were all quenched by AGB in a concentration-dependent manner.

[3] = biological target: T2, HSP60 (Homo sapiens, UniProt P10809); assay: Tryptophan fluorescence quenching assay; conditions: Stern-Volmer analysis; read-out: Kd of AGB binding to HSP60
Procedure: as §2, §3

[4] = biological target: T2, HSP60; assay: MDH refolding assay (chaperone function); assay type: biochemical; conditions: pre-incubation of Hsp60 with AGB
Source text: The function of HSP60 is mainly for its chaperone activity. HSP60 cooperates with co-chaperonin HSP10 to perform the misfolded proteins refolding and reactivate. Mitochondrial malate dehydrogenase (MDH), one of HSP60 substrates, was examined for the inhibition of chaperone function by AGB.

[5] = test system: NCI-H460 cells; assay: Apoptosis assays (Hoechst, annexin V/PI, Western blotting); assay type: cell-based, human
Procedure: FIG. 4 is a graph showing AGB induced apoptosis in NCI-H460 cells by the Annexin-V/PI double-staining assay. After treating with AGB for 24 h and 36 h, respectively, cells were stained with annexin V-FITC and propidium iodide and analyzed by flow cytometry.
The mitochondrial fission and mitochondrial membrane potential depolarization are involved in the induction of cell apoptosis and also play a central role to the apoptotic pathway. Therefore, several apoptosis assays were performed. […] Induction of apoptosis by AGB in NCI-H460 cells was further supported through monitoring PARP, caspase-9, and caspase-3 cleavage as well as through changes in the levels of a panel of proteins commonly involved in apoptotic signaling via Western blotting experiments (data not shown).

[6] = test system: CCD-19Lu (human lung fibroblast normal cell); assay: MTT cell viability assay, normal cell; assay type: cell-based; conditions: 48-h treatment
Procedure: as §1, with “For subculturing cells, 0.05% Trypsin-EDTA (Gibco®) was used for detaching and a subcultivation ratio of 1:5 was used.” left out
The cell viability assay was performed by a typical MTT assay. […] The formed formazan was then dissolved with SDS solution (10% SDS in 10 mM HCl) and followed the determination of absorbance at 590 nm by a microplate reader. The change in cell viability was then calculated for each drug concentration, then normalized to control. […]

T2 sequence (P10809 27-573): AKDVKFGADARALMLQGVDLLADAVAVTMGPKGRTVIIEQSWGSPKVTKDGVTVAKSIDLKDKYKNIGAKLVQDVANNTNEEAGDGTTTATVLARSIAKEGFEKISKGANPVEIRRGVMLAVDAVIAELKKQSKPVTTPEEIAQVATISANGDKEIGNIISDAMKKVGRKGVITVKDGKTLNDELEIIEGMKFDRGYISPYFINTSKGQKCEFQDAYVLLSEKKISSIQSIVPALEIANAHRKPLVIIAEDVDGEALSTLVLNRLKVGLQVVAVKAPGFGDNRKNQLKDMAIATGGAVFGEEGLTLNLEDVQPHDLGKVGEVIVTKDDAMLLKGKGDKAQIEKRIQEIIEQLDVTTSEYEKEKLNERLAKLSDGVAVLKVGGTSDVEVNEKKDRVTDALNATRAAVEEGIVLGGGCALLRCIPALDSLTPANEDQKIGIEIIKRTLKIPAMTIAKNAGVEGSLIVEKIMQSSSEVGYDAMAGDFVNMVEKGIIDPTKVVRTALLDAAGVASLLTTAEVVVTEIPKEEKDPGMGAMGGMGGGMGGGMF

## CCCC(=O)c1c(O)c(Cc2c(O)c(Cc3c(O)c(C)c(OC)c(C(=O)CCC)c3O)c(O)c(C(=O)[C@@H](C)CC)c2O)c(O)c(C)c1OC [AGB, Agrimol B]
[1]; 48-h treatment, range over tested cancer cell lines, read-out: IC50 values for the tested cancer cell lines
  IC50: 1.83 to 5.81 µM
[1]; MTT assay, cancer cells, read-out: IC50 values against cancer cells
  IC50: < 10 µM
[2]
  Kd: 22.7 µM
[3]
  Kd: 27 µM
[4]
  MDH refolding activities: concentration-dependent inhibition
[5]
  Hoechst staining: chromatin condensation and fragmentation
  release of mitochondrial factors to cytosol: release of cytochrome c and apoptosis inducing factor AIF
[5]; 24 h and 36 h AGB treatment
  annexin V and PI flow cytometry: increase of the early and late apoptotic cell populations
[6]
  IC50: 31.1 µM
